From PubChem BioAssay (NCI)
Values joined by “and” are separate entries in the source; they are usually repeats but may differ in a detail not shown here. Identical values can stand only once.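 Tested at 5 concentrations; 48 h exposure; 96-well plates; endpoints linearly interpolated, else capped at highest concentration. Here, GI50 denotes the concentration required for 50% inhibition of growth. TGI marks complete inhibition of growth.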

Experiments:
Assay in all cases: NCI tumour cell line growth inhibition, 48 h
[1] = system: BT-549 breast
[2] = system: HL-60(TB) leukemia
[3] = system: HOP-92 NSCLC
[4] = system: HT29 colon
[5] = system: PC-3 prostate
[6] = system: SK-MEL-5 melanoma
[7] = system: SNB-75 CNS
[8] = system: UO-31 renal
[9] = system: DMS 273 small cell lung
[10] = system: SNB-78 CNS

SMILES	GI50 [1]	TGI [1]	GI50 [2]	TGI [2]	GI50 [3]	TGI [3]	GI50 [4]	TGI [4]	GI50 [5]	TGI [5]	GI50 [6]	TGI [6]	GI50 [7]	GI50 [8]	TGI [8]	TGI [7]	GI50 [9]	TGI [9]	GI50 [10]	TGI [10]
COC(=O)c1ccc2c(c1)C(=O)c1c-2n(CCCN)c(=O)c2cc([N+](=O)[O-])ccc12	0.265 µM	1.77 µM	< 0.0194 µM	1.39 µM	0.301 µM	1.9 µM	< 0.0236 µM	0.436 µM	< 0.0373 µM	1.49 µM	< 0.0405 µM	0.8 µM	< 0.0348 µM	< 0.0137 µM	< 0.0405 µM	–	–	–	–	–
COc1cccc(-n2ncc3c(N/N=C/c4ccc(S(C)(=O)=O)cc4)ncnc32)c1	13.5 µM	> 25 µM	> 25 µM	> 25 µM	7.36 µM	18.7 µM	3.49 µM	10.5 µM	6.63 µM	> 20.9 µM	3.45 µM	> 15.8 µM	1.89 µM	5.77 µM	14.3 µM	4.32 µM	–	–	–	–
Cc1ncc(C(=O)Nc2ccc(CN3CCN(C)CC3)c(C(F)(F)F)c2)cc1C#Cc1cnc(N)c2ncccc12	1.65 µM	18.9 µM	0.164 µM	7.67 µM	0.129 µM	1.66 µM	0.0435 µM	2.08 µM	1.22 µM	2.8 µM	1.02 µM	4.44 µM	0.3 µM	0.0596 µM	0.775 µM	2.26 µM	–	–	–	–
CCC[CH2][Sn]([CH2]CCC)([O]C(=O)c1cc(OC)c(OC)cc1OC)[O]C(=O)c1cc(OC)c(OC)cc1OC	–	–	–	–	–	–	1.96 µM	4.67 µM	–	–	1.6 µM	3.18 µM	0.402 µM	1.57 µM	2.92 µM	1.53 µM	1.55 µM	3.37 µM	0.68 µM	2.41 µM
CCN(CC)CCCOc1cc(O)c2c(=O)cc(-c3ccccc3)oc2c1	13.3 µM	26.6 µM	3.98 µM	15.3 µM	3.08 µM	16.7 µM	2.36 µM	12.7 µM	10.8 µM	25.3 µM	3.16 µM	11.8 µM	8.36 µM	3.74 µM	15.9 µM	22.3 µM	–	–	–	–
CCCCCCCCCC1C(C)c2c([nH]c3ccccc23)C2C(=O)N(c3ccccc3)C(=O)C21 (stereo unspecified)	–	–	–	13.4 µM	–	–	–	22.7 µM	–	–	–	31.6 µM	–	–	26.8 µM	26.9 µM	–	25 µM	–	> 100 µM
COc1cc2ccnc(-c3c4ccccc4c(N)c4c(OC)c(OC)ccc34)c2cc1OC	–	–	–	4.44 µM	–	9.35 µM	–	11.7 µM	–	–	–	12.3 µM	–	–	13.5 µM	–	–	3.47 µM	–	18.3 µM
Nc1ncnc2c(C3OC(CO)C(O)C3O)scc12 (stereo unspecified)	–	–	–	0.00946 µM	–	0.529 µM	–	1.12 µM	–	–	0.0781 µM	4.68 µM and 2.64 µM	–	–	4.56 µM	5.5 µM	–	0.151 µM and 0.11 µM	–	–
S=C=NCc1ccccc1	–	5.12 µM	–	3.95 µM	–	17 µM	–	> 31.3 µM	–	19.8 µM	–	7.76 µM	–	–	6.74 µM	17.1 µM	–	–	–	–
CC1(C)N=C(N)N=C(N)N1c1cccc(CCCCc2ccccc2)c1	0.901 µM	3.99 µM	0.0925 µM	2.52 µM	0.326 µM	4.44 µM	0.0543 µM	11.6 µM	0.0497 µM	3.09 µM	0.198 µM	1.36 µM	3.06 µM	10.2 µM	32 µM	16.3 µM	–	–	–	–
O=C1c2ccccc2-c2n[nH]c3cccc1c23	19.3 µM	> 100 µM	9.8 µM	> 100 µM	23.7 µM	> 100 µM	12.9 µM	> 100 µM	17.8 µM	> 100 µM	25.6 µM	37.5 µM and > 94.6 µM	–	4.02 µM	> 100 µM and 55.9 µM	97.6 µM and > 100 µM	–	–	–	–
COc1ccc2c(c1)sc1nc(-c3ccccc3)c(-c3ccc(O)c(OC)c3)n12	17.5 µM	> 100 µM	5.33 µM	> 100 µM	28 µM	> 100 µM	3.56 µM	> 100 µM	26.3 µM	> 100 µM	3.64 µM	> 100 µM	11.1 µM	81 µM	> 100 µM	> 100 µM	–	–	–	–
C=CC(=O)N1CCC([C@@H]2CCNc3c(C(N)=O)c(-c4ccc(Oc5ccccc5)cc4)nn32)CC1	11.9 µM	31 µM	15.5 µM	49.7 µM	13.6 µM	43.7 µM	16.5 µM	> 71.1 µM	20.5 µM	69.3 µM	14.5 µM	28.7 µM	5.39 µM	2.96 µM	> 66.4 µM	30.6 µM	–	–	–	–
COc1cc(/C=C/c2ccc(OC(C)=O)cc2)cc(OC)c1OC	–	–	–	52.6 µM	–	80.2 µM	–	> 100 µM	–	–	–	34.6 µM	–	–	56.1 µM	–	–	> 100 µM	–	> 100 µM
Nc1nc(N)c2c(ccc3nccc32)[nH]1	3.06 µM	24.1 µM	2.53 µM	> 78.8 µM	4.18 µM	30.6 µM	1.67 µM	> 73.9 µM	1.63 µM	> 64.2 µM	2.28 µM	> 33.9 µM	17.2 µM	4.14 µM	31.1 µM	89.4 µM	–	–	–	–
O=c1oc2ccc(Cl)cc2c(=O)n1-c1cc(C(F)(F)F)cc(C(F)(F)F)c1	0.258 µM	0.86 µM	0.231 µM	0.553 µM	0.112 µM	0.479 µM	2.12 µM	14.6 µM	0.302 µM	4.49 µM	0.138 µM	0.336 µM	0.201 µM	0.238 µM	0.831 µM	0.786 µM	–	–	–	–
OCCNc1ncnc2c1ncn2C1OC(CO)C(O)C1O (stereo unspecified)	–	> 100 µM	–	> 100 µM	–	> 100 µM	–	> 100 µM	–	> 100 µM	–	> 100 µM	–	–	> 100 µM	> 100 µM	–	–	–	–
CCC1(C(=O)OC)CCc2c(OC)ccc(OC)c2C1=O (stereo unspecified)	–	–	–	> 100 µM	–	–	–	> 100 µM	–	–	–	> 100 µM	–	–	> 100 µM	–	–	> 100 µM	–	> 100 µM
